In patent US20090232735A1, “USE OF FRUCTOSE-BASED THERAPIES FOR THE TREATMENT OF CANCER” (CEDARS-SINAI MEDICAL CENTER, priority 2005, published 2009):

Legend:
Assay type in all cases: cell-based, human
[1] = system: PANC-1 pancreatic cancer cells; experiment: PANC-1 pancreatic cancer cell proliferation (MTS assay)
Protocol: FIG. 13 depicts higher proliferation rates in pancreatic cancer cells in fructose (5.5 mM) than glucose (5.5 mM) containing medium in accordance with an embodiment of the present invention. PANC-1 cells were pre-incubated in 2 mM glucose, after which they were plated in 5.5 mM fructose or glucose for times between 12-72 h, after which proliferative rates were measured using an MTS assay. Proliferative rates are expressed as the percentage difference between cells grown in 5.5 mM fructose versus 5.5 mM glucose. p<0.01 for times>48 h.
FIG. 14 depicts proliferation rates of pancreatic cells in different fructose or glucose concentrations in accordance with an embodiment of the present invention. PANC-1 cells were plated in a range of fructose or glucose concentrations (5-25 mM) for 72 h, after which proliferative rates were measured using an MTS assay. *, p<0.05 for concentrations between 5-25 mM fructose versus glucose.
FIG. 17 depicts cell proliferation regardless of co-existent glucose concentration in accordance with an embodiment of the present invention. PANC-1 cells were pre-incubated in 2 mM glucose prior to treatment with a range of concentrations (0-15 mM) mixed with a range of fructose concentrations (0-15 mM) for 72 h. PANC-1 cell proliferative rates were then measured using the MTS assay (absorbance in arbitrary units).
FIG. 35 depicts inhibition of pancreatic cancer PANC-1 cell proliferation by incubation with the transketolase inhibitor, oxythiamine (0.5-2 mM) for 72 h in accordance with an embodiment of the present invention. Proliferative rates were measured using the MTS proliferation assay.
Standard media for maintenance cancer cell line culture, including pancreatic cancer cells such as PANC-1 cells contain either low—(5-7 mM), or high—(12-25 mM) glucose concentrations. Clearly, apart from the setting of hyperglycemia, as in patients with diabetes, the glucose concentrations in which pancreatic cancer cells are maintained in vitro are much higher than normal physiological conditions, which range between 2-5 mM glucose. […] Therefore, the inventors first pre-treated the pancreatic cancer cells overnight in standard DMEM medium containing low physiological glucose concentrations (2 mM glucose), and standard 10% fetal bovine serum. The pancreatic cancer cells were then incubated for times between 12, and 96 hours in standard DMEM medium containing 10% fetal bovine serum, and 5.5 mM glucose or 5.5 mM fructose. Proliferative rates were then measured in replicate (minimum of 6) aliquot wells of the pancreatic cancer cells, and the change (expressed as percent increase) in proliferative rates compared between cells grown in glucose, or fructose containing medium.
This first result intrigued the inventors, but given there is little documentation regarding physiological fructose concentrations, the inventors first considered that the “apparent” pro-proliferative effects of fructose were simply a consequence of the highly stylized in vitro experimental conditions, and that if the pancreatic cancer cells were cultured in higher glucose concentrations, this would result in similar proliferative rates to those the inventors observed following culture in 5.5 mM fructose. Therefore, in the next experiments, the inventors compared proliferative rates of the PANC-1 pancreatic cancer cells following culture for 72 h in a range of fructose, and glucose concentrations (2-25 mM). This timepoint was chosen as the inventors had seen maximal pancreatic cancer cell proliferation in 5.5 mM fructose at 72 h. […] While not wishing to be bound by any particular theory, the inventors believe that this latter finding may be because the PANC-1 cells are proliferating at close to maximal capacity by 72 h, once they are exposed to comparatively low fructose concentrations (5 mM). MTS assay was employed to measure pancreatic cancer cell proliferative rates, which utilizes mitochondrial oxidation to quantify cell proliferation. […]

[2] = system: primary cultures of fresh surgically resected pancreatic cancers; experiment: BRDU uptake in primary cultures of resected pancreatic cancers; settings: all 5 primary pancreatic cancers, 5.5 mM, 72 h
Protocol: FIG. 18 depicts BRDU incorporation by pancreatic cells in accordance with an embodiment of the present invention. Freshly resected pancreatic cancers were mechanically, and enzymatically dispersed, and cells were pre-incubated in 2 mM glucose prior to treatment with 5.5 mM glucose or fructose for 72 h. BRDU (10 μM) was added to the medium at 48 h, and BRDU-uptake quantified at 72 h.
As immortalized cell-lines, such as PANC-1 pancreatic cancer cells, can become dedifferentiated after repeated passages, and in order to translate these findings in the PANC-1 cells to patients with pancreatic cancer, the inventors also examined proliferative rates in primary cultures of fresh surgically resected pancreatic cancers, following incubation in 2 mM, and 5.5 mM glucose or 5.5 mM fructose. Briefly, after mechanical and enzymatic (trypsin and DNAse) disaggregation, aliquots of tumor cells were seeded in 6-well plates, and incubated in standard DMEM media with 10% fetal bovine serum, and 2 mM glucose, 5.5 mM glucose, or 5.5 mM fructose for 72 h. As before in the PANC-1 experiments, BRDU (10 μM) was added in the […] of incubation in the sugars, following which BRDU-uptake was quantified.

GLUT-5 mRNA = GLUT-5 mRNA by real-time RT-PCR in PANC-1 cells
Protocol: FIG. 22 depicts […] mRNA levels in pancreatic cancer cells in accordance with an embodiment of the present invention. Quantitative real-time RT-PCR was used to measure GLUT-5 mRNA levels in pancreatic cancer cells (PANC-1), following culture in 2 mM glucose, 5.5 mM glucose, or 5.5 mM fructose for 4 h and 24 h.
Brit J Biomed Sci 56(4): 285-292, 1999; Rogers S, Docherty S E, Slavin J L, Henderson and Best J D. Differential expression of GLUT12 in breast cancer and normal breast tissue. Cancer Letters 193(2): 225-233, 2003). […] Teal-time RT-PCR was used to measure GLUT-5 mRNA expression following 2 mM, and 5.5 mM glucose-, and 5.5 mM fructose-treatment for 4 h, and 24 h respectively. GLUT-5 mRNA was expressed as the fold-change relative to GLUT-5 mRNA levels in 2 mM glucose-treated cells. As depicted in FIG. 22, at 4 h, GLUT-5 mRNA levels were low in both the 5.5 mM glucose-, and fructose-treated PANC-1 cells. […] This agrees with other studies which have reported fructose-induced GLUT-5 mRNA expression in colon cancer (Gouyon F, Onesto C, Dalet V, Pages G, Leturque A, and Brot-Laroche E. Fructose modulates GLUT5 mRNA stability in differentiated Caco-2 cells: Role of cAMP-signalling pathway and PABP (polyadenylated-binding protein)-interacting protein (Paip) 2. J Biochem 375:167-174, 2003).

O=C(CO)[C@@H](O)[C@H](O)[C@H](O)CO [fructose]
difference in proliferative rates, fructose vs glucose ([1]; PANC-1, 5.5 mM fructose vs 5.5 mM glucose, 48 h): ~13% | higher proliferative rate, fructose vs glucose ([1]; PANC-1, 5.5 mM fructose vs 5.5 mM glucose, 72 h): 23% | proliferative rates in 5 mM fructose compared to 25 mM glucose ([1]; PANC-1, 72 h): higher proliferative rates | cell proliferation with admixed glucose (0-15 mM) and fructose (0-15 mM) ([1]; PANC-1, 72 h, fructose concentrations of 6 mM and above, regardless of glucose concentration): an increase in cell proliferation | proliferative rates (BRDU-uptake) in fructose compared to glucose [2]: higher proliferative rates | GLUT-5 mRNA levels higher than in 2 mM glucose-treated cells (GLUT-5 mRNA; PANC-1, 5.5 mM fructose, 24 h): 1.5 fold | GLUT-5 mRNA levels higher than in 5.5 mM glucose-treated cells (GLUT-5 mRNA; PANC-1, 5.5 mM fructose, 24 h): 1.75 fold | GLUT-5 mRNA levels (GLUT-5 mRNA; PANC-1, 5.5 mM sugar, 4 h): low
